What was measured:
[1] = molecular target: T1, recombinant human 5-HT6 receptor (Homo sapiens, UniProt P50406); test: Radioligand binding, [3H]LSD competition, 5-HT6; conditions: membranes of HEK293 cells, pH 7.4, 37° C., read-out: pKi for the 5-HT6 receptor (converted)
T1 construct: expressed in transfected cells; cell membranes
Protocol: (§1) The binding activity of compounds of this invention in vitro was determined as follows. Duplicate determinations of 5-HT6 ligand affinity were made by competing for binding of [^3H]LSD in cell membranes derived from HEK293 cells stably expressing recombinant human 5-HT6 receptor. Duplicate determinations of 5-HT2A ligand affinity were made by competing for binding of [^3H]Ketanserin (3-(2-(4-(4-fluorobenzoyl)piperidinol)ethyl)-2,4(1H,3H)-quinazolinedione) in cell membranes derived from CHO-K1 cells stably expressing recombinant human 5-HT2A receptor. Membranes were prepared from HEK 293 cell lines by the method described by Monsma et al., Molecular Pharmacology, Vol. 43 pp. 320-327 (1993), and from CHO-K1 cell lines as described by Bonhaus et al., Br J Pharmacol. June 115(4):622-8 (1995).
(§2) For estimation of affinity at the 5-HT6 receptor, all determinations were made in assay buffer containing 50 mM Tris-HCl, 10 mM MgSO4, 0.5 mM EDTA, 1 mM ascorbic acid, pH 7.4 at 37° C., in a 250 microliter reaction volume. […]
(§3) Assay tubes containing [^3H] […] LSD or [^3H]Ketanserin were determined as radioactive counts per minute using Packard TopCount.
(§4) Displacement of [^3H]LSD or [^3H]Ketanserin from the binding sites was quantified by fitting concentration-binding data to a 4-parameter logistic equation: […]

[2] = molecular target: T2, recombinant human 5-HT2A receptor (Homo sapiens, UniProt P28223); test: Radioligand binding, [3H]Ketanserin competition, 5-HT2A; conditions: membranes of CHO-K1 cells, pH 7.4, 32° C., read-out: pKi for the 5-HT2A receptor (converted)
T2 construct: expressed in transfected cells; cell membranes
Protocol: as §1, §2, §3, §4

T2 sequence (P28223 whole entry): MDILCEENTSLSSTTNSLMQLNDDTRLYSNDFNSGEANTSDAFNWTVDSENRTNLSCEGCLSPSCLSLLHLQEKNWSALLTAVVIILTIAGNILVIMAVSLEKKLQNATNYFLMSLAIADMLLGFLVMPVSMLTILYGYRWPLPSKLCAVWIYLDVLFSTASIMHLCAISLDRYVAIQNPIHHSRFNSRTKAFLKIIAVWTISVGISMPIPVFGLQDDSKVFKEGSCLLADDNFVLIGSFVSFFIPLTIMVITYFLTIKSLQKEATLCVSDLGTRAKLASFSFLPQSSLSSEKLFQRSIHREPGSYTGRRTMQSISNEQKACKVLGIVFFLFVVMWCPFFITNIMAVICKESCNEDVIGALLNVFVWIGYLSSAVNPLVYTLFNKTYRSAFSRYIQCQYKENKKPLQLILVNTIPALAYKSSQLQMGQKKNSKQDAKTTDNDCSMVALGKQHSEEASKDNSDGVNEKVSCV
T1 sequence (P50406 whole entry): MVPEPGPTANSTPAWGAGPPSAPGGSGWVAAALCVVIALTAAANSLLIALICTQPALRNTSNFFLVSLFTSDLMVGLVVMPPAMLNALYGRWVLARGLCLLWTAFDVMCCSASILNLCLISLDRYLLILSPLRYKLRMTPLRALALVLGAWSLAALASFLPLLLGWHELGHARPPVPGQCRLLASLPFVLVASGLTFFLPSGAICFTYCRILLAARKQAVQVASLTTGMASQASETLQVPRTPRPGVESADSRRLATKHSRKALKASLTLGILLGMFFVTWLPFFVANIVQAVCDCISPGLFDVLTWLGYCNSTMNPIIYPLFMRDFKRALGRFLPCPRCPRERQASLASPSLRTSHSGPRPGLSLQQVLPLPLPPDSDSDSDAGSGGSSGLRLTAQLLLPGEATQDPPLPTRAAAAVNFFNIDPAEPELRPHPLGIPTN

CNCCOC1CCCc2cc(S(=O)(=O)c3ccccc3)ccc21 (centres unmarked) [Compound 5, [2-(6-Benzenesulfonyl-1,2,3,4-tetrahydro-naphthalen-1-yloxy)-ethyl]-methyl-amine]
Ki [1]: 1.82 nM | Ki [2]: 61.7 nM
